In article PMC6150406, “Adding an Artificial Tail—Anchor to a Peptide-Based HIV-1 Fusion Inhibitor for Improvement of Its Potency and Resistance Profile” (Molecules : A Journal of Synthetic Chemistry and Natural …, 2017):
Where two headings read alike, the source gives them in different places. Where a SMILES comes first, the peptide text is derived from it.

How the values were obtained:
[1] = clinical use; cited from earlier work
[2] = tested on: cell–cell fusion between H9/HIV-1IIIB cells and MT-2 cells; settings: read-out: IC50, cell–cell fusion; H9/HIV-1IIIB (Calcein AM) with MT-2 cells, 37 °C, 2 h
Method: A dye transfer assay was used to detect HIV-1 Env-mediated cell-cell fusion as described previously. […] For each well of the 96-well plate, 50 μL 2 × 10^4/mL labeled H9/HIV-1IIIB cells were then incubated with 100 μL 1 × 10^5/mL MT-2 cells at 37 °C for 2 h in the presence or absence of the tested peptide at graded concentrations. […] The IC50 values were calculated by using the Calcusyn computer program (Biosoft, Ferguson, MO, USA).

[3] = molecular target: T1, 6-HB formation between N46 and C34 (Human immunodeficiency virus type 1 group M subtype B, UniProt P04578); assay: Inhibition of 6-HB formation between N46 and C34 (ELISA, NC-1); assay type: biochemical, HIV-1; settings: ELISA with NC-1 mAb; 1 μM N46; 37 °C 30 min then 1 h; A450
T1 construct: NHR peptide N46 (aa 536-581 of NHR)
T1 sequence (P04578 536-581): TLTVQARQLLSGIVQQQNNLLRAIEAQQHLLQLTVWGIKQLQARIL
Method: The inhibitory activity of peptides on 6-HB formation was measured by a modified ELISA as previously described. Briefly, a 96-well polystyrene plate (Costar, Corning Inc., Corning, NY, USA) was coated with 50 μL 2 μg/mL NY364 (a polyclonal antibody for HIV-1 gp41 subunit) in 0.1 M Tris buffer (pH 8.8). A mixture of 1 μM N46 and C-peptide with graded concentrations was added to the coated plate after incubation at 37 °C for 30 min. After another 1 hour incubation at 37 °C, the plate was washed with washing buffer (PBS containing 0.1% Tween 20) three times and refilled by 50 μL 1 μg/mL NC-1 (a monoclonal antibody specific for HIV-1 gp41 6-HB formed by NHR and CHR). Afterwards, 50 μL of horseradish peroxidase (HRP)-labeled rabbit anti-mouse antibody (Sigma, St. Louis, MO, USA) (1:4000 diluted) were added to the wells of plate, followed by incubation for 1 h and washing. Finally, the substrate 3,3,5,5-tetramethylbenzidine (TMB, Sigma, St. Louis, MO, USA) was added. Absorbance at 450 nm (A450) was tested by an ELISA reader (Ultra 384, Tecan, NC, USA).

HIV-1 K90E = settings: T2635-resistant K90E; p24 ELISA
Method: (§1) Inhibitory activities of peptides on infection by laboratory-adapted HIV-1 X4 strain IIIB and HIV-1 R5 strain Bal, and HIV-1 clinical strains, as well as T20-, T2635- and HP23-resistant strains, were determined as described previously. For each well of the 96-well plate, 104 MT-2 cells or CEMx174 5.25 M7 cells with graded concentrations of peptide were infected by […] TCID50 of the HIV-1 virus X4 or R5 strains, respectively. After overnight culture, the medium was replaced with fresh RPMI 1640 medium containing 10% FBS. Fifty microliters of culture supernatant were collected from each well on the fourth day for MT-2 cells and the seventh day for CEMx174 5.25 M7 cells. The supernatant was mixed with equal volumes of 5% Triton X-100. The p24 antigen was detected by ELISA as previously described. IC50 values were calculated using the Calcusyn software program (Biosoft, Ferguson, MO, USA).

HIV-1 K154Q = settings: T2635-resistant K154Q; p24 ELISA
Method: as §1

HIV-1 A6V = settings: T2635-resistant A6V; p24 ELISA
Method: as §1

[4] = tested on: HIV-1 L34S/D36G/E49K/E136G; settings: HP23-resistant L34S/D36G/E49K/E136G; p24 ELISA
Method: as §1

KER2018 (A, R5) = settings: clinical isolate KER2018 (A, R5); CEMx174 5.25 M7 cells, p24 ELISA day 7
Method: as §1

NP1525 (A/E, X4/R5) = settings: clinical isolate NP1525 (A/E, X4/R5); p24 ELISA
Method: as §1

93IN101 (C, R5) = settings: clinical isolate 93IN101 (C, R5); CEMx174 5.25 M7 cells, p24 ELISA day 7
Method: as §1

92TH009 (A/E, R5) = settings: clinical isolate 92TH009 (A/E, R5); CEMx174 5.25 M7 cells, p24 ELISA day 7
Method: as §1

HIV-1 Bal (R5 virus) = settings: read-out: IC50, HIV-1 Bal infection; CEMx174 5.25 M7 cells; p24 ELISA, seventh day
Method: as §1

HIV-1 Q79E = settings: T2635-resistant Q79E; p24 ELISA
Method: as §1

HIV-1 Q66R = settings: T2635-resistant Q66R; p24 ELISA
Method: as §1

HIV-1 V38A, N42T = settings: T20-resistant V38A, p24 ELISA
Method: as §1

HIV-1 E49K = settings: HP23-resistant E49K; p24 ELISA
Method: as §1

HIV-1 Q79E/N126K = settings: T2635-resistant Q79E/N126K; p24 ELISA
Method: as §1

90US_873 (B, R5) = settings: clinical isolate 90US_873 (B, R5); CEMx174 5.25 M7 cells, p24 ELISA day 7
Method: as §1

HIV-1 N113E = settings: T2635-resistant N113E; p24 ELISA
Method: as §1

HIV-1 N126K = settings: T2635-resistant N126K; p24 ELISA
Method: as §1

HIV-1 wild-type = settings: p24 ELISA
Method: as §1

HIV-1 WT = settings: WT of T20-resistant panel; p24 ELISA
Method: as §1

HIV-1 V38E, N42S = settings: T20-resistant V38E, p24 ELISA
Method: as §1

HIV-1 K90E/N126K = settings: T2635-resistant K90E/N126K; p24 ELISA
Method: as §1

US4GS007 (B, R5) = settings: clinical isolate US4GS007 (B, R5); CEMx174 5.25 M7 cells, p24 ELISA day 7
Method: as §1

HIV-1 Q66R/N113E = settings: T2635-resistant Q66R/N113E; p24 ELISA
Method: as §1

HIV-1 E49K/N126K = settings: HP23-resistant E49K/N126K; p24 ELISA
Method: as §1

HIV-1 IIIB (X4 virus) = settings: read-out: IC50, HIV-1 IIIB infection; MT-2 cells; p24 ELISA, fourth day
Method: as §1

93BR020 (F, X4/R5) = settings: clinical isolate 93BR020 (F, X4/R5); p24 ELISA
Method: as §1

HIV-1 D36G/E49K/N126K = settings: HP23-resistant D36G/E49K/N126K; p24 ELISA
Method: as §1

HIV-1 H3C = settings: T2635-resistant H3C; p24 ELISA
Method: as §1

HIV-1 V38A = settings: T20-resistant V38A; p24 ELISA
Method: as §1

BK132/GS009 (B, X4) = settings: clinical isolate BK132/GS009 (B, X4); MT-2 cells, p24 ELISA day 4
Method: as §1

HIV-1 V38A, N42D = settings: T20-resistant V38A, p24 ELISA
Method: as §1

KNH1135 (A, R5) = settings: clinical isolate KNH1135 (A, R5); CEMx174 5.25 M7 cells, p24 ELISA day 7
Method: as §1

92UG024 (D, X4) = settings: clinical isolate 92UG024 (D, X4); MT-2 cells, p24 ELISA day 4
Method: as §1

enfuvirtide
half-life (in words) [1]: short half-life | oral bioavailability (in words) [1]: lack of oral bioavailability | IC50 [2]: 16.6 nM

CC[C@H](C)[C@H](NC(=O)[C@H](CCC(=O)O)NC(=O)[C@H](CCC(=O)O)NC(=O)[C@@H](NC(=O)[C@H](CCCCN)NC(=O)[C@H](CCCCN)NC(=O)[C@@H](NC(=O)[C@H](Cc1ccc(O)cc1)NC(=O)[C@H](CCC(=O)O)NC(=O)[C@H](CCC(=O)O)NC(=O)[C@@H](NC(=O)[C@H](CCCCN)NC(=O)[C@H](CCCCN)NC(=O)[C@H](CCC(=O)O)NC(=O)[C@H](Cc1c[nH]c2ccccc12)NC(=O)[C@H](CCC(=O)O)NC(=O)[C@H](CCC(=O)O)NC(=O)[C@H](Cc1c[nH]c2ccccc12)NC(=O)[C@@H](NC(=O)[C@H](CCSC)NC(=O)[C@@H](N)CCC(=O)O)[C@@H](C)O)[C@@H](C)CC)[C@@H](C)O)[C@@H](C)CC)C(=O)N[C@@H](CC(C)C)C(=O)N[C@@H](CCCCN)C(=O)O [HP23] (H-EMTWEEWEKKIEEYTKKIEEILK-OH)
IC50 [3]: 3.72 µM | IC50 (HIV-1 K90E): 9.4 ± 0.3 nM | IC50 (HIV-1 K154Q): 7.4 ± 0.4 nM | IC50 (HIV-1 A6V): 1.6 ± 0.5 nM | IC50 [4]: > 60 nM | IC50 (KER2018 (A, R5)): 1.9 ± 0.2 nM | IC50 (NP1525 (A/E, X4/R5)): 9.5 ± 0.6 nM | IC50 (93IN101 (C, R5)): 3.7 ± 0.3 nM | IC50 (92TH009 (A/E, R5)): 0.8 ± 0.2 nM | IC50 (HIV-1 Bal (R5 virus)): 5.96 nM | IC50 (HIV-1 Q79E): 4.2 ± 0.7 nM | IC50 (HIV-1 Q66R): 2.8 ± 0.1 nM | IC50 (HIV-1 V38A, N42T): 1.5 ± 0.3 nM | IC50 (HIV-1 E49K): 13.4 ± 0.7 nM | IC50 (HIV-1 Q79E/N126K): 5.2 ± 0.4 nM | IC50 (90US_873 (B, R5)): 3.4 ± 0.6 nM | IC50 (HIV-1 N113E): 2.3 ± 0.5 nM | IC50 (HIV-1 N126K): 8.6 ± 0.4 nM | IC50 (HIV-1 wild-type; wild-type of HP23-resistant panel): 3.3 ± 0.3 nM | IC50 (HIV-1 wild-type; wild-type of T2635-resistant panel): 2.8 ± 0.2 nM | IC50 (HIV-1 WT): 3.1 ± 0.1 nM | IC50 (HIV-1 V38E, N42S): 6.2 ± 0.3 nM | IC50 (HIV-1 K90E/N126K): 4.2 ± 0.3 nM | IC50 (US4GS007 (B, R5)): 3.9 ± 0.6 nM | IC50 (HIV-1 Q66R/N113E): 3.6 ± 0.3 nM | IC50 (HIV-1 E49K/N126K): 53.8 ± 1.2 nM | IC50 (HIV-1 IIIB (X4 virus)): 1.68 nM | IC50 (93BR020 (F, X4/R5)): 4.5 ± 0.2 nM | IC50 (HIV-1 D36G/E49K/N126K): > 60 nM | IC50 (HIV-1 H3C): 5.4 ± 0.4 nM | IC50 (HIV-1 V38A): 2.1 ± 0.7 nM | IC50 (BK132/GS009 (B, X4)): 7.2 ± 0.5 nM | IC50 (HIV-1 V38A, N42D): 2.9 ± 0.3 nM | IC50 (KNH1135 (A, R5)): 2.2 ± 0.3 nM | IC50 (92UG024 (D, X4)): 3.5 ± 0.2 nM | IC50 [2]: 5.12 nM
